Assay results: patent publication US9896487B2, “Amyloidosis-inhibiting polypeptides and their use” (UNIVERSITY OF WASHINGTON THROUGH ITS CENTER FOR …, priority 2013, dated 2018)
Entries after “also recorded” stand apart in the source; their conditions may differ. Where a SMILES comes first, the peptide text is derived from it. [ ]: non-standard residue; d: D form.

Legend:
[1] = Solubility and solution behaviour of the designs; settings: for solubility: aqueous solution-phase experiments
[2] = biological target: T1, TTR (Homo sapiens, UniProt P02766); test: Immobilized designs on agarose beads, binding of TTR from solution (dot blot); settings: immobilized design; for binding of pre-incubated, toxic oligomer-containing TTR: TTR pre-incubated at low pH for 24 hrs
T1 construct: purchased Lee Biosolutions, St. Louis Mo; 496-11

[3] = biological target: T2, Aβ (Homo sapiens, UniProt P05067); test: Immobilized designs on agarose beads, binding of Aβ from solution (dot blot); settings: immobilized design; for binding of pre-aggregated, toxic Aβ: Aβ pre-aggregated for 6 hrs
T2 construct: Aβ (1-42) (AMYD-002; CPC Scientific, Sunnyvale Calif.); purchased CPC Scientific, Sunnyvale Calif; AMYD-002

[4] = biological target: T3, transthyretin (TTR) (Homo sapiens, UniProt P02766); test: TTR fibrillization assay (Congo red binding); assay type: biochemical; settings: for inhibition of the remaining TTR aggregation: peptide added to 24-hour pre-incubated, toxic TTR, versus aggregation in the absence of inhibitor
T3 construct: purchased Lee Biosolutions, St. Louis Mo; 496-11
Method: Aliqouts of transthyretin (TTR) (496-11; Lee Biosolutions, St. Louis Mo.) were made from a 1 mg/mL solution 20 mM ammonium carbonate, pH 8. Aliquots were lyophilized and stored at −18° C. Prior to use, TTR was dissolved to 80 μM (monomer) in acetate buffer (50 mM potassium acetate, 100 mM potassium chloride pH 4.5) and sonicated for 10 minutes. The stock solution was centrifuged before use. Peptide designs were added to stock TTR to a final TTR concentration of 40 μM (monomer) in acetate buffer (pH 4.5) in 500 μL microcentrifuge tubes, which were incubated at 37° C. Periodically, samples were collected from the TTR:peptide mixture by briefly centrifuging, and then carefully pipetting the solution up and down prior to withdrawing a 10 μL sample and diluting it in 190 μL of 10 μM Congo red in an individual well of a 96-well assay plate. Each measurement was performed in triplicate. Absorbance measurements were taken at 477 and 540 nm. Relative Congo red binding was determined using the method of Klunk et al. using the relationship: rCb=(Abs540/25,295)−(Abs477/46,306) (40). All datapoints were normalized to the value recorded for TTR alone pH 4.5 at 48 hrs.
(§1) The “control” designs were tested as general inhibitors against the Amyloid β 1-42 peptide (Aβ) (panel A), the islet amylin polypeptide (IAPP, or amylin, which is implicated in type 2 diabetes) (panel B), and transthyretin (TTR) (panel C) amyloidosis (FIG. 6). […] As described in Example 1, a Thioflavin T (ThT) fluorescence assay was used to monitor Aβ and IAPP aggregation. A Congo Red dye-binding assay was used to monitor TTR fibrillization. For inhibition against Aβ, peptides were co-incubated at 4-fold excess of Aβ at RT in neutral pH buffer containing ThT. Note that the results for α1 differ somewhat from what are included in Example 1 because the assay conditions were altered slightly to slow the process down to favor oligomerization of Aβ (rather than fibril elongation) by lowering the temperature to 25° C. […] For inhibition against IAPP, peptides were co-incubated at 8-fold excess of IAPP at 37° C. in neutral pH buffer containing 20 μM ThT. For inhibition against TTR, peptides were co-incubated at 10-fold excess of monomeric TTR.

[5] = biological target: T4, Aβ (1-42) (Homo sapiens, UniProt P05067); test: Aβ fibrillization assay (Thioflavin T fluorescence); assay type: biochemical; settings: for time of aggregation at which the inhibitory effect is exerted: 10:1 excess, 37° C., ThT; for inhibition of Aβ fibril formation: co-incubated in 10:1 excess (100 μM peptide, 10 μM Aβ), pH 7.4, 37° C., measured at 22 hours; for inhibition of aggregation of pre-aggregated, toxic Aβ: designs added to Aβ pre-aggregated for 6 hrs, versus aggregation in the absence of inhibitor
T4 construct: Aβ (1-42) (AMYD-002; CPC Scientific, Sunnyvale Calif.); purchased CPC Scientific, Sunnyvale Calif; AMYD-002
Method: Similarly, the designs were co-incubated (in 10:1 excess) with Aβ at pH 7.4 and followed fibril formation with ThT fluorescence changes upon binding at 37° C. (FIG. 2c). As observed for TTR, both α1 and α3 inhibited aggregation. Again α1 was more efficient, inhibiting approximately 87% of fibril formation compared with 66% for α3, when measured after the reaction stabilized at 22 hours. […] The 37° C. studies are reported here, though, for comparison with TTR, which aggregates very slowly at 25° C.
Aβ (1-42) (AMYD-002; CPC Scientific, Sunnyvale Calif.) was stored as 2 mg/mL stock in hexafluoroisopropanol (HFIP) at −18° C. Prior to use, the stock solution was thawed, an aliquot taken and the HFIP was removed under a gentle stream of air. A 1 mg/mL stock solution of Aβ was made in 5 mM NaOH and sonicated for 5-10 minutes. The stock was filtered through a 0.22 μm cellulose filter (Costar Spin-X; Corning Inc, NY). The concentration of stock Aβ was determined by first diluting the stock 1:50 in 5 mM NaOH then taking the absorbance at 220 nm (ε220=50,000 cm^−1 M^−1). Aliquots of the NaOH stock were placed in separate wells of a 96-well black-walled fluorescence plate (Nunc) and immediately diluted in PBS (11 mM phosphate) containing 20 μM Thioflavin T (ThT) to give 150 μL of 10 μM Aβ at pH 7.5. Peptide inhibitors were added directly to 10 μM Aβ samples from concentrated aqueous stocks. Covered plates were incubated at 37° C. and were periodically removed for fluorescence measurements. ThT fluorescence was measured at λex=450 nm and λem=480 nm using a Tecan Safire2 plate reader.
as §1

[6] = test system: human neuroblastoma cell line SH-SY5Y
Method: The toxicity of aggregates was tested against the human neuroblastoma cell line SH-SY5Y in an MTT cell viability assay. The human neuroblastoma cell line SH-SY5Y (CRL-226; American Type Culture Collection) was grown in 75 cm^2 flasks in 1:1 DMEM/F12 (CellGro) supplemented with 10% FBS and 50 units/mL penicillin/50 μg/mL streptomycin (complete media), and incubated at 37° C. in humidified 5% CO2 environment. Cells were routinely passaged when they reached 90% confluence by addition of trypsin (Gibco) and replated at a ratio of 1:10 in complete media. Cells were plated to a density of 25,000 cells/well in a 96-well plate (100 μL/well) and allowed to attach overnight. The cell assay was performed as described by Reixach et al. (41).

[7] = test system: Aβ, IAPP and TTR amyloidosis / toxic oligomer; test: Inhibitory activity summary: inhibition of aggregation and/or binding of toxic oligomer; assay type: biochemical
Method: In addition, FIG. 5 contains ‘control’ designs aimed at reverse engineering the α1 design, which is presented in more detail in Example 3. […] These designs are both linear and cyclic peptides designed to be hairpins.
The “control” designs were tested as general inhibitors against the Amyloid β 1-42 peptide (Aβ) (panel A), the islet amylin polypeptide (IAPP, or amylin, which is implicated in type 2 diabetes) (panel B), and transthyretin (TTR) (panel C) amyloidosis (FIG. 6). […] As described in Example 1, a Thioflavin T (ThT) fluorescence assay was used to monitor Aβ and IAPP aggregation. A Congo Red dye-binding assay was used to monitor TTR fibrillization. For inhibition against Aβ, peptides were co-incubated at 4-fold excess of Aβ at RT in neutral pH buffer containing ThT. […] For inhibition against IAPP, peptides were co-incubated at 8-fold excess of IAPP at 37° C. in neutral pH buffer containing 20 μM ThT. For inhibition against TTR, peptides were co-incubated at 10-fold excess of monomeric TTR.
The data in FIG. 6 were normalized to ThT fluorescence of the negative (uninhibited) control (black squares). Inhibition traces are ordered vertically according to sequence identity to α1 (see Table 1). Sigmoidal fits to data are included. Controls are identical throughout a single panel, and traces for inhibition samples are colored while the uninhibited aggregation profiles are in black.

T4 sequence (P05067 672-713 limits assumed): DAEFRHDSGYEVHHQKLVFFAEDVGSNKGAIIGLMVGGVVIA
T2 sequence (P05067 672-713 limits assumed): as above

Row | Molecule | solubility [1] | binding of pre-incubated, toxic oligomer-containing TTR [2] | binding of pre-aggregated, toxic Aβ [3] | association state in solution ([1]; NMR conditions: very high sample concentrations, 50 mM potassium phosphate, 100 mM KCl pH 5.8) | inhibition of the remaining TTR aggregation [4] | inhibition at 800 µM ([4]; peptide co-incubated in excess 20:1 (800 μM) with 40 μM TTR monomer, pH 4.5, 37° C., after 48 hours, relative to TTR alone at low pH, read-out: percentage inhibition of TTR aggregation) | time of aggregation at which the inhibitory effect is exerted [5] | inhibition of Aβ fibril formation [5] | inhibition of aggregation of pre-aggregated, toxic Aβ [5] | viability of treated cells [6] | binding of native, tetrameric TTR [2] | binding of pre-incubated, toxic oligomer-containing TTR ([2]; listed as α1) | percentage inhibition of TTR aggregation ([4]; peptide co-incubated in excess 20:1 (800 μM) with 40 μM TTR monomer, pH 4.5, 37° C., after 48 hours, relative to TTR alone at low pH) | inhibition of Aβ aggregation at 4-fold excess ([5]; 4-fold excess of peptide, 25° C. (RT), neutral pH buffer with ThT, listed as α1) | Inhibits Aggregation and/or binds oligomer? [7] | binding of pre-aggregated, toxic Aβ ([3]; listed as α1) | binding of fresh, monomeric Aβ ([3]; fresh (0 h) Aβ)
1 | CSCC[C@H](NC(=O)[C@@H](CCCCN)NC(=O)[C@H](CS)NC(=O)[C@@H](CC(N)=O)NC(=O)[C@H](CCSC)NC(=O)[C@H](NC(=O)[C@H](Cc1c[nH]c2ccccc12)NC(=O)CNC(=O)[C@H](Cc1ccc(O)cc1)NC(=O)[C@H](Cc1ccc(O)cc1)NC(=O)[C@H](CCC(=O)O)NC(=O)[C@H](CC(N)=O)NC(=O)[C@H](CCSC)NC(=O)[C@@H](Cc1c[nH]c2ccccc12)NC(=O)[C@H](Cc1ccccc1)NC(=O)[C@@H](Cc1ccc(O)cc1)NC(=O)[C@H](CC(N)=O)NC(=O)[C@@H](CCSC)NC(=O)[C@H](CCC(=O)O)NC(=O)CNC(=O)[C@H](CCCNC(=N)N)NC(C)=O)[C@H](C)O)C(=O)NCC(=O)N[C@@H](CCCNC(=N)N)C(N)=O [α2] (Ac-RGE[dM]N[dY]F[dW]MNEYYGW[dT]M[dN]C[dK]MGR-NH2) | sparingly soluble; also recorded: not soluble enough for NMR | to a greater extent than the rc and β controls; also recorded: more strongly bound | bound pre-aggregated, toxic Aβ preferentially | – | – | – | – | – | – | – | – | – | – | – | – | – | –
2 | CSCC[C@@H]1NC(=O)[C@@H]([C@H](C)O)NC(=O)[C@H](Cc2c[nH]c3ccccc23)NC(=O)[C@@H](C)NC(=O)[C@H](C)NC(=O)[C@H](C)NC(=O)[C@H](C)NC(=O)[C@H](CC(N)=O)NC(=O)[C@H]([C@@H](C)O)NC(=O)[C@@H](Cc2c[nH]c3ccccc23)NC(=O)[C@H](CO)NC(=O)[C@@H](CCCCN)NC(=O)[C@H](CCC(N)=O)NC(=O)[C@@H](CCC(N)=O)NC(=O)[C@H](CCCCN)NC(=O)[C@H](CC(N)=O)NC(=O)[C@H]2CCCN2C(=O)[C@H](CCC(=O)O)NC(=O)[C@@H](CCCCN)NC(=O)[C@H](CC(C)C)NC(=O)[C@@H](CCC(N)=O)NC1=O [α3] (cyclo([dQ]Q[dK]S[dW]TNAAA[dA]W[dT]M[dQ]L[dK]E[dP]NK)) | soluble | to a greater extent than the rc and β controls; also recorded: more strongly bound | bound pre-aggregated, toxic Aβ preferentially | well-behaved monomers | 77% | 56% | approximately 6 hrs | 66% | 96% | – | – | – | – | – | – | – | –
3 | Aβ: β-amyloid peptide 1-42 (AMYD-002; CPC Scientific) | – | – | – | – | – | – | – | – | – | less than 50% | – | – | – | – | – | – | –
4 | Ac-RGEmNiSwMNEYSGWtMnLkMGR-NH2 [peptide #1] | – | – | – | – | 81% | – | approximately 6 hrs | approximately 87% | 97% | – | did not bind | to a greater extent than the rc and β controls; also recorded: more strongly bound | 72% | essentially completely abolishes aggregation; also recorded: quenches Aβ aggregation | demonstrate activity and yes | preferentially bound the pre-aggregated, toxic form of Aβ | did not bind
